{"source": "patent US4160829A", "about": "“Antibacterial 1,2,4-oxadiazolylacetamido cephalosporins” (Gist-Brocades N.V., priority 1972, dated 1979)", "key": {"Bac.Subt.ATCC 6633": {"test_system": "Bac.Subt.ATCC 6633", "experiment": "agar serial dilution test", "format": "cell-based, Bacillus subtilis", "conditions": "Bacillus subtilis, ATCC6633, 24 h, agar serial dilution, 24 hours, 37° C.; read-out: minimal inhibitory concentration (MIC)"}, "Staph.aureus A 2001 [1]": {"test_system": "Staph.aureus A 2001", "experiment": "agar serial dilution test", "format": "cell-based, Staphylococcus aureus", "conditions": "Staphylococcus aureus, A2001, 24 h, agar serial dilution, 24 hours, 37° C.; read-out: minimal inhibitory concentration (MIC)"}, "Strep. faec. L 80": {"test_system": "Strep. faec. L 80", "experiment": "agar serial dilution test", "format": "cell-based, Streptococcus faecalis", "conditions": "Enterococcus faecalis; agar serial dilution, 24 hours, 37° C.; read-out: minimal inhibitory concentration (MIC)"}, "Kleb.pneum. A 809": {"test_system": "Kleb.pneum. A 809", "experiment": "agar serial dilution test", "format": "cell-based, Klebsiella pneumoniae", "conditions": "Klebsiella pneumoniae; agar serial dilution, 24 hours, 37° C.; read-out: minimal inhibitory concentration (MIC)"}, "Pseud.aerug. H 10": {"test_system": "Pseud.aerug. H 10", "experiment": "agar serial dilution test", "format": "cell-based", "conditions": "agar serial dilution, 24 hours, 37° C.; read-out: minimal inhibitory concentration (MIC)"}, "Pseud.aerug. 2396": {"test_system": "Pseud.aerug. 2396", "experiment": "agar serial dilution test", "format": "cell-based", "conditions": "agar serial dilution, 24 hours, 37° C.; read-out: minimal inhibitory concentration (MIC)"}, "[2]": {"test_system": "Pseud.aerug. Wyeth A 1058", "experiment": "agar serial dilution test", "format": "cell-based", "conditions": "agar serial dilution, 24 hours, 37° C.; read-out: minimal inhibitory concentration (MIC)"}, "Prot.rettg. A 821": {"test_system": "Prot.rettg. A 821", "experiment": "agar serial dilution test", "format": "cell-based, Proteus rettgeri", "conditions": "Providencia rettgeri, 24 h, agar serial dilution, 24 hours, 37° C.; read-out: minimal inhibitory concentration (MIC)"}, "Prot.mirab. H 3": {"test_system": "Prot.mirab. H 3", "experiment": "agar serial dilution test", "format": "cell-based, Proteus mirabilis", "conditions": "Proteus mirabilis; agar serial dilution, 24 hours, 37° C.; read-out: minimal inhibitory concentration (MIC)"}, "Prot.mirab. A 1200 [3]": {"test_system": "Prot.mirab. A 1200", "experiment": "agar serial dilution test", "format": "cell-based, Proteus mirabilis", "conditions": "Proteus mirabilis, 24 h, agar serial dilution, 24 hours, 37° C.; read-out: minimal inhibitory concentration (MIC)"}, "Strep.haem A 1088": {"test_system": "Strep.haem A 1088", "experiment": "agar serial dilution test", "format": "cell-based, Streptococcus haemolyticus", "conditions": "Streptococcus, A1088, 24 hours, 37° C., read-out: minimal inhibitory concentration (MIC)"}, "Sarc. lutea ATCC 9341": {"test_system": "Sarc. lutea ATCC 9341", "experiment": "agar serial dilution test", "format": "cell-based", "conditions": "Micrococcus luteus, ATCC9341, 24 hours, 37° C., read-out: minimal inhibitory concentration (MIC)"}, "Bruc. Suis A 2126": {"test_system": "Bruc. Suis A 2126", "experiment": "agar serial dilution test", "format": "cell-based", "conditions": "Brucella suis, 24 h, read-out: minimal inhibitory concentration (MIC)"}, "Actinob.equ. T 3": {"test_system": "Actinob.equ. T 3", "experiment": "agar serial dilution test", "format": "cell-based", "conditions": "24 hours, 37° C., read-out: minimal inhibitory concentration (MIC)"}, "Staph.aureus A 355 [4]": {"test_system": "Staph.aureus A 355", "experiment": "micro serial dilution test", "format": "cell-based, Staphylococcus aureus", "conditions": "Staphylococcus aureus, A355; micro serial dilution (in brackets), about 18 hours, 30° C. or 37° C.; penicillinase-producing strain; read-out: minimal inhibitory concentration (MIC)"}, "Staph.aureus A 2000": {"test_system": "Staph.aureus A 2000", "experiment": "micro serial dilution test", "format": "cell-based, Staphylococcus aureus", "conditions": "Staphylococcus aureus, A2000, 18 h, micro serial dilution (in brackets), about 18 hours, 30° C. or 37° C.; read-out: minimal inhibitory concentration (MIC)"}, "Staph.aureus A 2001 [5]": {"test_system": "Staph.aureus A 2001", "experiment": "micro serial dilution test", "format": "cell-based, Staphylococcus aureus", "conditions": "Staphylococcus aureus, A2001, 18 h, micro serial dilution (in brackets), about 18 hours, 30° C. or 37° C.; read-out: minimal inhibitory concentration (MIC)"}, "Prot.mirab. A 1200 [6]": {"test_system": "Prot.mirab. A 1200", "experiment": "micro serial dilution test", "format": "cell-based", "conditions": "Proteus mirabilis; micro serial dilution (in brackets), about 18 hours, 30° C. or 37° C.; read-out: minimal inhibitory concentration (MIC)"}, "Haem.Suis A 2096": {"test_system": "Haem.Suis A 2096", "experiment": "micro serial dilution test", "format": "cell-based", "conditions": "micro serial dilution (in brackets), about 18 hours, 30° C. or 37° C.; read-out: minimal inhibitory concentration (MIC)"}, "[7]": {"test_system": "Klebsiella pneumoniae A 265", "experiment": "protection test", "format": "in vivo", "conditions": "i.p."}, "[8]": {"experiment": "blood and urine contents after intramuscular administration in rabbits", "format": "in vivo, rabbits \"Nieuw Zeelander\"", "conditions": "rabbit, im, intramuscular 50 mg/kg", "description": "(d) the blood and urine contents of the above-indicated compound G and of monosodium 7-[(3-carboxymethyl-1,2,4-oxadiazol-5-yl)acetamido]-3-acetoxymethyl-3-cephem-4-carboxylate (as prepared in example 35) were determined after intramuscular administration of these compounds in an aqueous solution in rabbits, as listed below:\ntest animals: rabbits \"Nieuw Zeelander\"\nEach testgroup consisted of 3 rabbits.\nVehiculum: Physiol. saline solution\nBloodsamples were taken after 1/4--1/2--1--2--4 hours Urinesamples were taken after 1--3--6--24--27 hours (in practice only the secreted amounts after 6 and 24 hours were used).\nTestorganisms: Bacillus subtilis ATCC 6633 and Bacillus callidolactis E 16.\nThe contents of the compounds in the samples were determined microbiologically.\n(Only microbiologically detected concentrations, i.e. anti-bacterially active concentrations only have been indicated and determined in relation to the original administered compound)."}, "Staph.aureus A 355 [9]": {"test_system": "Staph.aureus A 355", "experiment": "agar serial dilution test", "conditions": "Staphylococcus aureus, A355, 24 h, read-out: minimal inhibitory concentration (MIC), agar serial dilution, 24 hours, 37° C.; penicillinase-producing strain"}}}
{"smiles": "Cc1noc(CC(=O)N[C@@H]2C(=O)N3C(C(=O)O)=C(CSc4nnnn4C)CS[C@H]23)n1", "note": "[Compound G, sodium-7[(3-methyl-1,2,4-oxadiazol-5-yl)-acetamido] 3 [1-methyl-tetrazol-5-yl-mercaptomethyl] 3-cephem-4-carboxylate]", "values": [{"measurement": "MIC", "setting": "Bac.Subt.ATCC 6633", "result": 0.25, "unit": "µg/mL"}, {"measurement": "MIC", "setting": "Staph.aureus A 2001 [1]", "result": 0.5, "unit": "µg/mL"}, {"measurement": "MIC", "setting": "Strep. faec. L 80", "result": 50, "unit": "µg/mL"}, {"measurement": "MIC", "setting": "Kleb.pneum. A 809", "result": 0.5, "unit": "µg/mL"}, {"measurement": "MIC", "setting": "Pseud.aerug. H 10", "result": 100, "unit": "µg/mL"}, {"measurement": "MIC", "setting": "Pseud.aerug. 2396", "result": 100, "unit": "µg/mL"}, {"measurement": "MIC", "setting": "[2]", "result": 100, "unit": "µg/mL"}, {"measurement": "MIC", "setting": "Prot.rettg. A 821", "result": 0.25, "unit": "µg/mL"}, {"measurement": "MIC", "setting": "Prot.mirab. H 3", "result": 25, "unit": "µg/mL"}, {"measurement": "MIC", "setting": "Prot.mirab. A 1200 [3]", "result": 25, "unit": "µg/mL"}, {"measurement": "MIC", "setting": "Strep.haem A 1088", "result": 0.25, "unit": "µg/mL"}, {"measurement": "MIC", "setting": "Sarc. lutea ATCC 9341", "result": 0.5, "unit": "µg/mL"}, {"measurement": "MIC", "setting": "Bruc. Suis A 2126", "result": 1, "unit": "µg/mL"}, {"measurement": "MIC", "setting": "Actinob.equ. T 3", "result": 0.5, "unit": "µg/mL"}, {"measurement": "MIC", "setting": "Staph.aureus A 355 [4]", "result": 0.9, "unit": "µg/mL"}, {"measurement": "MIC", "setting": "Staph.aureus A 2000", "result": 0.6, "unit": "µg/mL"}, {"measurement": "MIC", "setting": "Staph.aureus A 2001 [5]", "result": 0.6, "unit": "µg/mL"}, {"measurement": "MIC", "setting": "Prot.mirab. A 1200 [6]", "result": 15, "unit": "µg/mL"}, {"measurement": "MIC", "setting": "Haem.Suis A 2096", "result": 0.23, "unit": "µg/mL"}, {"measurement": "ED50", "setting": "[7]; Klebsiella pneumoniae, A265, ip, protection test", "result": 86, "unit": "mg/kg"}, {"measurement": "Potency ratio", "setting": "[7]; reference Cefalotin", "result": "1,09"}, {"measurement": "concentration at 0.5 h", "setting": "[8]; serum, after 1/2 hr, read-out: Serumlevel", "result": 137000, "unit": "ng/mL"}, {"measurement": "concentration at 0.25 h", "setting": "[8]; serum, after 1/4 hr, read-out: Serumlevel", "result": 157000, "unit": "ng/mL"}, {"measurement": "concentration at 1 h", "setting": "[8]; serum, after 1 hr, read-out: Serumlevel", "result": 49000, "unit": "ng/mL"}, {"measurement": "concentration at 2 h", "setting": "[8]; serum, after 2 hr, read-out: Serumlevel", "result": 25000, "unit": "ng/mL"}, {"measurement": "concentration at 4 h", "setting": "[8]; serum, after 4 hr, read-out: Serumlevel", "result": 6700, "unit": "ng/mL"}, {"measurement": "dose excreted at 6 h", "setting": "[8]; urine, after 6 hr, read-out: Secretion of compound in urine in % of the administered dose", "result": 51.3, "unit": "%"}, {"measurement": "dose excreted at 24 h", "setting": "[8]; urine, after 24 hr, read-out: Secretion of compound in urine in % of the administered dose", "result": 55.5, "unit": "%"}, {"measurement": "MIC", "setting": "Staph.aureus A 355 [9]", "result": 1, "unit": "µg/mL"}]}
